According to US20170327789A1, “Modulation of Dopamine Receptor to Promote Neural Cell Differentiation” (The Hospital for Sick Children, priority 2014, published 2017):

Key:
human fetal NSC (hf5205) = assay: Immunocytochemistry for Vglut1 after 3 weeks differentiation; type: cell-based; conditions: 2-step growth withdrawal
Experimental: Antibodies included: Beta-III tubulin (1:100 MAB1637), GFAP (1:1000, DAKO), Vglut1 (1:1000, Synaptic system), GABA (1:1000, Sigma). Appropriate fluorescent-conjugated secondary antibodies were used at 1:500 for 1 h at room temperature. Coverslips were mounted with fluorescent mounting medium (DAKO) containing DAPI (1:1000) and cells were imaged using Leica microscope. Hit validation for differentation. All retests for differentiation were done by a two step growth withdrawal method (as described in Sun et al. Mol. Cell. Neurosci. 38(2008) 245-258) with and without the test compound for 8 days. […] Immunocytochemistry was performed for a series of antibodies marking different classes of neurons based on their neurotransmitters including glutamatergic, dopaminergic, cholinergic and serotonergic. […] Vglut1 is a vesicular glutamate transporter required for transport of glutamate into synaptic vesicles of glutamatergic neurons.

Hf5205 cells = assay: Single cell qPCR (Fluidigm analysis) of differentiated cells; type: cell-based, human; conditions: 3.5 μM, three weeks
Experimental: Single Cell qPCR (Fluidigm Analysis). Differentiated hfNS (hf5205) at week 3 was accutased and cells were resuspended in NS medium containing 1 μg per ml of propidium iodide and filtered through a 40 μm nylon cell strainer followed by live single cell sorting into a 96 well qPCR plate on a BD cell sorter. Cells were sorted into 10 μl of preamplification mix containing 40 nM of all primers for the 48 genes, and the following components of CellsDirect One-Step qRT-PCR kit (Invitrogen) as directed in protocol: 2× reaction mix, SuperScript III RT/platinum Taq mix. After sorting, samples were reverse transcribed and preamplified for 18 cycles. Preamplified samples were diluted (2×) with TE buffer and stored at −20° C. Sample and assay primer preparation for Fluidigm Dynamic arrays was done according to the manufacturer's recommendation. Samples were mixed with 2× assay loading reagent (Fluidigm Corp), 20× EvaGreen and TaqMan gene expression master mix. The Fluidigm Dynamic arrays were primed and loaded on the IFC controller and qPCR experiments were run on a Biomark system for genetic analysis.
Fluidigm Analysis. Hf5205 cells were differentiated in the two-step growth withdrawal method, with and without L-741,742 (3.5 μM) for three weeks. The differentiated cells were harvested and filtered through a 40 uM nylon filter and live sort single cell (based on PI staining) into a 96 well qRT-PCR plate containing pre-amplification mix of 48 primers, reverse transcribed and amplified for 48 genes (as described in Pasca et al. Nature Medicine (2011) November 27; 17(12) 1657-62) in one step using a kit from Invitrogen. Samples and primer pairs were prepared for Fluidigm as per protocol. Cells were identified based on presence of RPS18 and GAPDH, Data was analyzed based on population of cells expressing particular genes using different CT value cut off.
Characterization of L-741,742-differentiated cells by Fluidigm analysis. To further characterize the different population of neurons in L-741,742 differentiated culture, a single cell Fluidigm array was employed that can perform multiple qRT-PCR (48 genes or 96 genes) at a single cell level as shown in FIG. 6. Forty eight (48) gene primers marking various cell populations were used including, early progenitor marking dorsal, ventral or midbrain, differentiated neuronal markers based on neurotransmitters GABA or glutamatergic and markers specifying different cortical layers. Primer sequences were obtained from Pasca et al. Nature Medicine (2011) November 27; 17(12) 1657-62).

human fetal NSC [1] = assay: RT-qPCR gene expression of neuronal lineage and cortical layer markers in differentiated cells; type: cell-based
Experimental: Hit validation for differentation. All retests for differentiation were done by a two step growth withdrawal method (as described in Sun et al. Mol. Cell. Neurosci. 38(2008) 245-258) with and without the test compound for 8 days. Test compounds included L-741,742 (3 μM), PNU96415E (15 μM), Ifenprodil tartrate (1.5 μM), McN A-343 (4 μM), and (−) —N-Phenylcarbamoyleseroline (6 μM). For mature neuronal marker analysis, human fetal NSC were differentiated for 3 weeks using L-741,742 (2-4 μM varying at different stages) in the two step growth withdrawal method.
The differentiated cells were further tested for gene expression of different neuronal lineage markers by RT-qPCR. A series of primers were designed for markers representing both neurotransmitters and domain specific regions as shown in Table 1.
L-741,742-differentiated neurons show cortical layer V marker. L-741,742-differentiated cells show increased expression of VGLUT1 and NEUROG2. NEUROG2 expression is required for promoting excitatory neurons in the dorsal cortical region during development. To test if L-741,742 promotes or specifies specific cortical layer neurons, a series of primers were designed to mark all layers of cortex; Reelin (layer 1), Tbr1 (layer V1), Ctip2 (Layer V), Satb2 (Layer II-III) and Foxg1 (telenchepalic marker) (Table 1). The expression of these markers in L-741,742-differentiated cells was determined by RT-qPCR. […] Thus, L-741,742-differentiated neurons express cortical layer V marker CTIP2 and telencephalic marker FOXG1, with VGLUT1 expression, indicating differentiation into cortical layer neurons.

human fetal NSC [2] = assay: GABA staining of differentiated cells, week 1-3; type: cell-based; conditions: 2 week differentiated cells
Experimental: Immunocytochemistry. hfNS cells differentiated on coverslips were fixed with 4% paraformaldehyde and permeabilized with 0.3% Triton X100, block with 5% goat serum, and incubated with primary antibody overnight at 4° C. Antibodies included: Beta-III tubulin (1:100 MAB1637), GFAP (1:1000, DAKO), Vglut1 (1:1000, Synaptic system), GABA (1:1000, Sigma). Appropriate fluorescent-conjugated secondary antibodies were used at 1:500 for 1 h at room temperature. Coverslips were mounted with fluorescent mounting medium (DAKO) containing DAPI (1:1000) and cells were imaged using Leica microscope.
L-741,742-differentiated cells were also tested for GABA staining from week 1-3 and GABA positive cells were present in early in 1 week differentiated cells, showing up to 11% GABA positive neurons in 2 week differentiated cells (FIG. 5).

For `Cl.Cl.Fc1ccc(N2CCN(CCC3OCCc4ccccc43)CC2)cc1` (stereo not shown) [PNU96415E], the “Vglut1-positive staining indicating differentiation into glutamatergic neurons” value (human fetal NSC (hf5205)) was “Vglut1-positive staining”.

For `Cc1c(C2CCN(CCc3ccccc3)CC2)noc1-c1ccc(Cl)cc1` [L-741,742], the “expression of CAMKII (marking glutamatergic neurons)” value (Hf5205 cells) was “increase”, the “expression of EVT1 (marking lower cortical layer V)” value (Hf5205 cells) was “increase” and the “expression of MAP2 (marking neurons)” value (Hf5205 cells) was “increase”. The “expression of VGLUT1 (marking glutamatergic neurons)” value (Hf5205 cells) was “increase”, the “expression of VGLUT2 (marking glutamatergic neurons)” value (Hf5205 cells) was “increase” and the “expression of VGLUT3 (marking glutamatergic neurons)” value (Hf5205 cells) was “increase”. For the same compound, the “Vglut1-positive staining indicating differentiation into glutamatergic neurons” value (human fetal NSC (hf5205)) was “Vglut1-positive staining”, the Reelin expression (human fetal NSC [1]; at the concentration tested) was “not detectable” and the Tbr1 expression (human fetal NSC [1]; at the concentration tested) was “not detectable”. For the same compound, the “increase in NEUROG2 expression” value (human fetal NSC [1]; compared to the control) was 11 fold, the “increase in VGLUT1 expression” value (human fetal NSC [1]; compared to the control) was 15-35 fold and the “increase in CTIP2 expression” value (human fetal NSC [1]; cortical layer V marker) was “approximately 23 fold”. For the same compound, the “increase in FOXG1 expression” value (human fetal NSC [1]; telencephalic marker) was ~27 fold and the GABA positive neurons (human fetal NSC [2]) was “up to 11%”.

For Ifenprodil tartrate, the “Vglut1-positive staining indicating differentiation into glutamatergic neurons” value (human fetal NSC (hf5205)) was “Vglut1-positive staining”.
